Where two headings read alike, the source gives them in different places.
Key:
[1] = system: recombinant glutamine synthetase from Lotus japonicas; assay: Biosynthetic assay for plant glutamine synthetase; type: biochemical; conditions: for effect on plant glutamate synthetase activity (in words): text summary of Table 5, 40 μg/ml
Method: The biosynthetic assay for plant glutamine synthetase was carried out as follows. This assay uses following solutions: reaction buffer (pH 6.8, 75 mM HEPES, 300 mM L-glutamic acid, 11 mM NH4Cl, 40 mM MgCl2), recombinant […] GS from Lotus japonicas (Betti et al., 2006) working solution (pH 6.8, 50 mM ATP), reaction quenching and color formation solution (12% w/v L-ascorbic acid in 1 N HCl solution and 2% w/v sodium molybdate in DD H2O), color fixing solution (1% sodium citrate tribasic dehydrate in 1% acetic acid in DD H2O), and blank solution (420 mM EDTA solution).
Commercial herbicide (i.e., glufosinate or DL-Phosphinotricin) was used a positive control. EDTA was used as a negative control. In this experiment, we used the active ingredient(s) in the extracts from Burkholderia Spp. (internal labeled as A396 strain or MBI-206 and/or MBI-010).

[2] = system: Burkholderia A396; type: cell-based, Burkholderia sp. A396; conditions: for Susceptible: Muller-Hinton medium, 72-hour incubation at 25° C.; for Susceptibility of Burkholderia A396 (in words): Table 2
Method: Antibiotic susceptibility of Burkholderia A396 is tested using antibiotic disks on Muller-Hinton medium as described in PML Microbiological's technical data sheet #535.

[3] = system: B. cepacia isolates; conditions: 366 B. cepacia isolates, Pitt et al., 1996; cited from earlier work
[4] = system: B. cepacia complex strains isolated from cystic fibrosis patients; conditions: of 2,621 B. cepacia complex strains, Zhou et al., 2007; cited from earlier work
[5] = Table 5, pure compounds of MBI-206 and fractions, 40 μg/ml

CP(=O)(O)CCC(N)C(=O)O (racemic) [DL-Phosphinotricin]
GS inhibition (%) Plate 1 ([1]; Study #2 (MBI-206), 100 μg/ml): 68.8%
GS inhibition (%) Plate 2 ([1]; Study #2 (MBI-206), 100 μg/ml): 71.5%
GS inhibition (%) ([1]; Table 5, pure compounds of MBI-206 and fractions, 100 μg/ml): 70.8%
GS inhibition (%) ([1]; study #1 (MBI-010), 200 μg/ml final concentration): 70%
GS inhibition (%) ([1]; study #1 (MBI-010), 200 μg/ml final concentration, listed as DL-phosphinotricin): about 70%

CC1(C)S[C@@H]2[C@H](NC(=O)[C@H](N)c3ccccc3)C(=O)N2[C@H]1C(=O)O [Ampicillin]
Susceptible ([2]; disk 10 ug): −

CO/N=C(\C(=O)N[C@@H]1C(=O)N2C(C(=O)O)=C(COC(N)=O)CS[C@H]12)c1ccco1 [Cefuroxime]
Susceptible ([2]; disk 30 ug): −
antibiotic resistance of isolates (in words) [3]: most of them are resistant

O=C(N[C@H](CO)[C@H](O)c1ccc([N+](=O)[O-])cc1)C(Cl)Cl [Chloramphenicol]
Susceptibility of Burkholderia A396 (in words) [2]: susceptible
Susceptible ([2]; disk 30 ug): ++
strains resistant [4]: 85%
strains susceptible [4]: 15%

O=C(O)c1cn(C2CC2)c2cc(N3CCNCC3)c(F)cc2c1=O [Ciprofloxacin]
Susceptibility of Burkholderia A396 (in words) [2]: susceptible
Susceptible ([2]; disk 5 ug): ++
antibiotic resistance of isolates (in words) [3]: most of them are resistant
strains susceptible [4]: 5%

CC[C@H]1OC(=O)[C@H](C)[C@@H](O[C@H]2C[C@@](C)(OC)[C@@H](O)[C@H](C)O2)[C@H](C)[C@@H](O[C@@H]2O[C@H](C)C[C@H](N(C)C)[C@H]2O)[C@](C)(O)C[C@@H](C)C(=O)[C@H](C)[C@@H](O)[C@]1(C)O [Erythromycin]
Susceptible ([2]; disk 15 ug): −

C/C=C1\NC(=O)[C@H]2CSSCC/C=C/[C@H](CC(=O)N[C@H](C(C)C)C(=O)N2)OC(=O)[C@H](C(C)C)NC1=O [FR901228 (iii), FR901228]
GS inhibition (%) [1, 5]: 57%
effect on plant glutamate synthetase activity (in words) [1]: inhibitory effect

C[C@@H](O)[C@H]1C(=O)N2C(C(=O)O)=C(SCCN=CN)C[C@H]12 [Imipenem]
Susceptible ([2]; disk 10 ug): +++

NC[C@H]1O[C@H](O[C@H]2[C@H](O)[C@@H](O[C@H]3O[C@H](CO)[C@@H](O)[C@H](N)[C@H]3O)[C@H](N)C[C@@H]2N)[C@H](O)[C@@H](O)[C@@H]1O [Kanamycin]
Susceptible ([2]; disk 30 ug): +++

CN(C)[C@@H]1C(O)=C(C(N)=O)C(=O)[C@@]2(O)C(O)=C3C(=O)c4c(O)cccc4[C@@](C)(O)[C@H]3[C@H](O)[C@@H]12 [Oxytetracycline]
Susceptible ([2]; disk 30 ug): −

CCN1CCN(C(=O)N[C@@H](C(=O)N[C@@H]2C(=O)N3[C@@H]2SC(C)(C)[C@@H]3C(=O)O)c2ccccc2)C(=O)C1=O [Piperacillin]
Susceptibility of Burkholderia A396 (in words) [2]: susceptible
Susceptible ([2]; disk 100 ug): +++

[H]/N=C(/N)N[C@H]1[C@H](O)[C@@H](O)[C@H](O[C@@H]2O[C@@H](C)[C@](O)(C=O)[C@H]2O[C@@H]2O[C@@H](CO)[C@H](O)[C@@H](O)[C@@H]2NC)[C@@H](N/C(N)=N\[H])[C@@H]1O [Streptomycin]
Susceptible ([2]; disk 10 ug): −

COC(=O)c1nc(CC(C)C)oc1-c1c[nH]c2ccccc12 [Templazole A (i), templazole A]
GS inhibition (%) [1, 5]: 30%
effect on plant glutamate synthetase activity (in words) [1]: inhibitory effect

CN(C)[C@@H]1C(O)=C(C(N)=O)C(=O)[C@@]2(O)C(O)=C3C(=O)c4c(O)cccc4[C@@](C)(O)[C@H]3C[C@@H]12 [Tetracycline]
Susceptible ([2]; disk 30 ug): −

Gentamicin
Susceptible ([2]; disk 10 ug): −

Penicillin
Susceptible ([2]; disk 10 ug): −

templazole B [Templazole B (ii)]
GS inhibition (%) [1, 5]: 46%
effect on plant glutamate synthetase activity (in words) [1]: inhibitory effect

From US9119401B2, “Plant glutamine synthetase inhibitors and methods for their identification” (priority 2012, dated 2015)
